{
  "source": "patent US20100144737A1",
  "about": "“METHODS FOR INHIBITING T HELPER CELL DIFFERENTIATION” (FibroGen, Inc., priority 2008, published 2010)",
  "assay_type_in_all_cases": "cell-based, human",
  "key": {"[1]": {"system": "naïve T helper cells", "experiment": "Th1 cell differentiation: IFN-γ secretion after second and third TCR stimulation following washout", "procedure": "The effectiveness of compounds of the present invention at reducing Th1 differentiation was examined as follows. Th1 differentiation was induced by culturing anti-CD3 stimulated T cells in the presence of exogenous IL-12. Human cord blood naive T helper cells (AllCells LLC, Emeryville, Calif.) were stimulated (i.e., T cell receptor (TCR) stimulation) by seeding into 96-well culture dishes coated with 5 μg/ml anti-CD3 antibody (clone UCHT1, R&D Systems, Minneapolis, Minn.), and 5 μg/ml anti-CD28 antibody (clone ANC28.1/D10, Ancell Corporation, Bayport, Minn.), and cultured at 37° C., 5% CO2 in RPMI-1640 (Mediatech Inc., Hemdon, Va.) containing 1% FBS, 1 U/ml penicillin-1 μg/ml streptomycin (Invitrogen Corporation, Carlsbad, Calif.), and 50 U/ml IL-2 (Roche Diagnostics Corporation, Indianapolis, Ind.). At time of seeding, cells were cultured with media alone or with media containing 2 ng/ml IL-12 and 10 μg/ml anti-IL-4 to induce Th1 cell differentiation. […]\nThe cells were then collected, washed twice with RPMI-1640 media containing 1% FBS, and counted before equal numbers of cells per well were re-stimulated (second T cell receptor (TCR) stimulation following washout of all prior treatments) by re-seeding the cells into 96-well culture dishes coated with 5 μg/ml anti-CD3 antibody and 5 μg/ml anti-CD28 antibody. […] After 24 hours the conditioned media from the cells was collected and analyzed for IFN-γ levels using a MS2400 Tissue Culture Kit (MesoScale Technologies, Gaithersburg, Md.) according to the manufacturer's instructions.\nThirteen days after the second TCR stimulation described above, the cells were collected, washed twice with RPMI-1640 media containing 1% FBS, and counted before equal numbers of cells per well were stimulated a third time (third TCR stimulation) by re-seeding into 96-well culture dishes coated with 5 μg/ml anti-CD3 antibody and 5 μg/ml anti-CD28 antibody. […]\nIn another series of experiments, the effectiveness of compounds of the present invention at reducing Th1 differentiation was determined. […]"}, "[2]": {"system": "naïve T helper cells", "experiment": "T helper cell number and viability (Guava ViaCount)", "details": "day 7", "procedure": "To examine the effect of compounds and methods of the present invention on T helper cell number and viability, the following studies were performed. Human cord blood naive T helper cells (AllCells LLC, Emeryville, Calif.) were stimulated (i.e., T cell receptor (TCR) stimulation) by seeding into 96-well culture dishes coated with 5 μg/ml anti-CD3 antibody (clone UCHT1, R&D Systems, Minneapolis, Minn.), and 5 μg/ml anti-CD28 antibody (clone ANC28.1/D10, Ancell Corporation, Bayport, Minn.), and cultured at 37° C, 5% CO2 in RPMI-1640 (Mediatech Inc., Herndon, Va.) containing 1% FBS, 1 U/ml penicillin-1 μg/ml streptomycin (invitrogen Corporation, Carlsbad, Calif.), and 50 U/ml IL-2 (Roche Diagnostics Corporation, Indianapolis, Ind.). […] The T helper cells were then collected and cell number and cell viability were analyzed using Guava ViaCount reagents and the Guava PCA System (Guava Technologies, Hayward, Calif.).\nIn another set of experiments, the effect of compounds and methods of the present invention on T helper cell number and viability was determined. […] The T helper cells were then collected and cell number and cell viability were analyzed using Guava ViaCount reagents and the Guava PCA System (Guava Technologies, Hayward, Calif.)."}, "[3]": {"system": "naïve CD4+T Cells", "experiment": "T helper cell synthesis of pro-inflammatory (IFN-γ) and anti-inflammatory (IL-5) cytokines", "details": "seven days", "procedure": "To examine the effect of compounds and methods of the present invention on T helper cell synthesis of pro-inflammatory and anti-inflammatory cytokines, the following studies were performed. Human cord blood naive CD4+T Cells (AllCells LLC, Emeryville, Calif.) were stimulated (i.e., T cell receptor (TCR) stimulation) by seeding into 96-well culture dishes coated with 5 μg/ml anti-CD3 antibody (clone UCHT1, R&D Systems, Minneapolis, Minn.), and 5 μg/ml anti-CD28 antibody (clone ANC28.1/D10, Ancell Corporation, Bayport, Minn.), and cultured at 37° C., 5% CO2 in RPMI-1640 (Mediatech Inc., Hemdon, Va.) containing 1% FBS, 1 U/ml penicillin-1 μg/ml streptomycin (Invitrogen Corporation, Carlsbad, Calif.), and 50 U/ml IL-2 (Roche Diagnostics Corporation, Indianapolis, Ind.). At time of seeding, cells were treated according to one of the following conditions: 1) media alone (Con); 2) 10 ng/ml IL4, 10 μg/ml anti-IFN-γ antibody, and 10 μg/ml anti-IL-12 antibody (R&D Systems, Minneapolis, Minn.); or 3) 2 ng/ml IL-12 and 10 μg/ml anti-IL-4 antibody. […] The cell-conditioned media was collected and analyzed for IFN-γ levels (a pro-inflammatory cytokine) and IL-5 levels (an anti-inflammatory cytokine) using MS2400 Human Tissue Culture Kits (MesoScale Technologies, Gaithersburg, Md.) according to the manufacturer's instructions."}},
  "data": [
    {"smiles": "Cc1nc(C(=O)NCC(=O)O)c(O)c2ccc(Oc3ccccc3)cc12", "note": "[Compound A, [(4-Hydroxy-1-methyl-7-phenoxy-isoquinoline-3-carbonyl)-amino]-acetic acid]", "values": [
      {"measurement": "IFN-γ secretion following the second TCR stimulation", "setting": "[1]; compound present only during first TCR stimulation (seven days) with IL-12, 24 hours after re-stimulation", "value": "reduced IFN-γ secretion"},
      {"measurement": "IFN-γ secretion after a third TCR stimulation", "setting": "[1]; compound present only during first TCR stimulation with IL-12, thirteen days after the second stimulation, 24 hours", "value": "decreased IFN-γ secretion"},
      {"measurement": "percent of viable T helper cells", "setting": "[2]", "value": "did not decrease"},
      {"measurement": "total number of viable T helper cells", "setting": "[2]", "value": "did not decrease"},
      {"measurement": "IL-12-mediated increase in IFN-γ secretion", "setting": "[3]; 2 ng/ml IL-12 and anti-IL-4 antibody", "value": "reduced the IL-12-mediated increase in IFN-γ secretion"},
      {"measurement": "IL-5 levels", "setting": "[3]; 10 ng/ml IL4, anti-IFN-γ and anti-IL-12 antibody, vs IL-4 alone", "value": "increased IL-5 levels"}
    ]}
  ]
}
